Assay results from patent US10961187B2, “Substituted N-acetyl-L-cysteine derivatives and related compounds” (Promentis Pharmaceuticals, Inc., priority 2013, dated 2021).

Legend:
[1] = molecular target: T1, System xc− (Homo sapiens, UniProt Q9UPY5); assay: 3H-glutamate release from human glial cells from brain astrocytoma (1321N1); format: cell-based; conditions: at 3 hours, 1321N1 cells
T1 construct: in vitro culture system of human glial cells from brain astrocytoma (1321N1); endogenous in cells; host or cells: 1321N1 human astrocytoma cells
T1 sequence (Q9UPY5 1-501): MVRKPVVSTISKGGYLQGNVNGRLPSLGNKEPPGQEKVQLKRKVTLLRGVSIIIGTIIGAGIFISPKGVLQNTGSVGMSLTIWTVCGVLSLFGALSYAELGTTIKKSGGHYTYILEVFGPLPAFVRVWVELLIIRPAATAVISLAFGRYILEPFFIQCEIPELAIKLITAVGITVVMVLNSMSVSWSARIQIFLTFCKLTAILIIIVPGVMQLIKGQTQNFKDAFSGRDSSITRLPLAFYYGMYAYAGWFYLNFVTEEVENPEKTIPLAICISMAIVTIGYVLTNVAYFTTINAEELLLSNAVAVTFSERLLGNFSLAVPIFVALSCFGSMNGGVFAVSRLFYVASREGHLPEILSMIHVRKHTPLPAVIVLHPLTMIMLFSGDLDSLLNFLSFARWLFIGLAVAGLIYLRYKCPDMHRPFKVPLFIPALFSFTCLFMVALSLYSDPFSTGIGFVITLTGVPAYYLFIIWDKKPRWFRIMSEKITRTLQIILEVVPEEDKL
T1 sequence (P08195 1-529 partner): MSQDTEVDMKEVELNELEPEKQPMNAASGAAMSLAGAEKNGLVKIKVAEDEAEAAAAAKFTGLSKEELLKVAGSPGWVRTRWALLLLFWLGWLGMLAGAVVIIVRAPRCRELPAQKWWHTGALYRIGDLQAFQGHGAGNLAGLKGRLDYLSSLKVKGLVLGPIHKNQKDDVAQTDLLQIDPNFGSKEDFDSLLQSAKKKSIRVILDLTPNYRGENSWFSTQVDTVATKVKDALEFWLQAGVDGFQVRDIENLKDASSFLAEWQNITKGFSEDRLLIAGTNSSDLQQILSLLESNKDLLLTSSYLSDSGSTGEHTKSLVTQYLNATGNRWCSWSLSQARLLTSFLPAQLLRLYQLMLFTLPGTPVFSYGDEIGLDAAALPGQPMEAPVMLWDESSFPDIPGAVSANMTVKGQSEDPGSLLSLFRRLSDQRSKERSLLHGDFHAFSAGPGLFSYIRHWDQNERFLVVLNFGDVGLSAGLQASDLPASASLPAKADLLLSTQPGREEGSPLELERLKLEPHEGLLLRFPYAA
Description: This assay also uses the cell culture system of human glial cells from brain astrocytoma (1321N1) described above. Initially, cells are washed with HBBSS, and ^3H-glutamate is added (PerkinElmer: 1 mCi/mL stock solution is diluted (30 μL+500 HBBSS) and 10 μL of diluted radiolabel is added to each well). Following a 1 hour incubation to load the cells with the labeled glutamate, the cells are washed again with HBBSS, and the drug is added. At 30, 90, and 180 minutes, 50 μL of extracellular media is sampled from each well and is measured using a Beckman LS 6500 scintillation counter.

[2] = tested on: mixed cortical cell cultures containing glial and neuronal cells; assay: In vitro thiol experiment: intracellular cysteine levels; format: cell-based, mice; conditions: for intracellular cysteine concentration: raw concentration in collected samples
Description: To further resolve by what process the inhibition of ^14C-cystine uptake is occurring intracellular cysteine levels were determined.
Mixed cortical cell cultures containing glial and neuronal cells were prepared from fetal (15-16 day gestation) mice as previously described. (Lobner D, “Comparison of the LDH and MTT assays for quantifying cell death: validity for neuronal apoptosis?,” J. Neurosci. Methods, 96(2): 147-152 (Mar. 15, 2000)). Dissociated cortical cells were plated on 24-well plates coated with poly-D-lysine and laminin in Eagles' Minimal Essential Medium (MEM, Earle's salts, supplied glutamine-free) supplemented with 5% heat-inactivated horse serum, 5% fetal bovine serum, 2 mM glutamine and glucose (total 21 mM). Cultures were maintained in humidified 5% CO2 incubators at 37° C. Mice were handled in accordance with a protocol approved by our institutional animal care committee and in compliance with the Public Health service Policy on Humane Care and Use of Laboratory Animals.
Mixed cortical cell cultures, 14 days in vitro (this allows for a confluent layer of astrocytes to form and the neurons to generate a complex network of axons and dendrites), were washed into bicarbonate buffered salt solution. After 1 hour, 3, 10, 30, 100 μM of Pro-4047 or Pro-4051 was added and the cells were incubated for 30 or 90 minutes, after which the cells were thoroughly washed and the collected in 250 μL of aqueous mobile phase (50 mM citric acid, 10 mM octanesulfonic acid, pH 2.8) was added, after 10 minutes at 37° C. the cells were scraped from the plates and transferred to 1.5 mL tubes for analysis.
Samples were then sonicated with a Fisher Scientific 60 Sonic Dismembrator. One fraction of this homogenate was analyzed with the Pierce BCA (bicinchoninic acid) method to determine protein concentration. The other fraction was filtered using 3 K molecular weight cutoff, polyethersulfone centrifugal protein filters, and analyzed for thiol content using HPLC (ALF-115 column, 150×1.0 mm, 3 μm C18 [Pro-2023 analysis utilized a Phenomenex Kinetex 2.6 μM, C18, 100 A, 150×2.1 mm and Pro-4047 analysis utilized a Phenomenex Kinetex X-B, C18, 100 A, 2.6 μm, 150×4.4 mm]; mobile phase: 50 mM citric acid, 10 mM octanesulfonic acid, 2% acetonitrile, pH 2.8, 50 μL/min flow rate [Pro-2023 analysis utilized a 100 μL/min flow rate and Pro-4047 analysis utilized 1% acetonitrile and 0.4 mL/min flow rate] with electrochemical detection (Decade II, Au working electrode, Flex Cell HyREF, 0.55V, Antec Leyden, Netherlands [Pro-4047 analysis utilized a Magic Diamond working electrode and 1.8V]).
When the intracellular thiol assay was initiated, all data was normalized to protein concentration. […] The data presented herein represents the raw cysteine concentrations in the collected samples. […] Pro-4006 at 10 μM increases intracellular cysteine concentration to 0.07 μM at 30 minutes (approximately 3.5 times that of the control; FIG. 11). […] Pro-4047 at 300 μM increases intracellular cysteine concentration to 0.74 μM at 90 minutes (approximately 4.9 times that of the control; FIG. 13). […] Thus, based on the 3 in vitro experiments it is apparent that Pro-2023, Pro-4006, Pro-4011, Pro-4047, Pro-4051 and Pro-4051a behave as effective cysteine prodrugs.

Row | SMILES | increase in 3H-glutamate release ([1]; 300 μM) | intracellular cysteine, times that of the control ([2]; 100 μM compound, 30 minutes) | intracellular cysteine concentration ([2]; 100 μM compound, 30 minutes) | increase in 3H-glutamate release ([1]; 100 μM) | intracellular cysteine, times that of the control ([2]; 300 μM compound, 90 minutes) | intracellular cysteine concentration ([2]; 300 μM compound, 90 minutes) | intracellular cysteine, times that of the control ([2]; 100 μM compound, 90 minutes) | intracellular cysteine concentration ([2]; 100 μM compound, 90 minutes)
1 | CC(=O)N[C@@H](CSC(=O)c1ccc(C)cc1)C(=O)O [Pro-2023, (2R)-2-Acetylamino-3-(4-methyl-benzoylsulfanyl)-propionic acid] | approximately 135% | approximately 1.6 times | 0.16 µM | – | – | – | – | –
2 | CCOC(=O)[C@H](CSC(=O)C1CSC(=O)N1)NC(C)=O (stereo partly drawn) [Pro-4047, Ethyl (2R)-2-acetamido-3-(2-oxo-1,3-thiazolidine-4-carbonylsulfanyl) propanoate] | – | – | – | approximately 40% | approximately 4.9 times | 0.74 µM | – | –
3 | CCOC(=O)[C@H](CSC(=O)c1ccc(C)cc1)NC(C)=O [Pro-4051, Ethyl (2R)-2-acetamido-3-(4-methylbenzoylsulfanyl)propanoate] | approximately 100% | – | – | – | – | – | approximately 4 times | 0.36 µM
